The values that follow are results of earlier work, collected in patent publication US20260283953A1, “FORMULATIONS OF PHOSPHOLIPID CARRIER COMPLEXES” (priority 2024, published 2026).

The structures appear in SMILES notation. Where two headings read alike, the source gives them in different places.

The conditions of data set [1]: in vivo.
The conditions of data set [2]: for testosterone levels: oral 60 mg dose.
The conditions of data set [3]: natural testosterone.

As for `O=C(/C=C/C=C/c1ccc2c(c1)OCO2)N1CCCCC1` [Piperine, (2E,4E)-5-(2H-1,3-Benzodioxol-5-yl)-1-(piperidin-1-yl)penta-2,4-dien-1-one], the solubility in water result is “dissolves poorly in water”.

For `COc1cc(/C=C/C(=O)CC(=O)/C=C/c2ccc(O)c(OC)c2)ccc1O` [curcumin], in data set [1], the bioavailability entry is recorded as “low bioavailability”.

As to `C[C@]12CC[C@H]3[C@@H](CCC4=CC(=O)CC[C@@]43C)[C@@H]1CC[C@@H]2O` [testosterone, 17β-Hydroxyandrost-4-en-3-one], the “absorption and metabolism with oral delivery” value in data set [2] (first pass through the intestines and liver) was “well-absorbed but extensively metabolized”. The “inactivation after oral delivery” value in data set [2] (men, doses of less than 200 mg) was “rapidly and completely inactivated”. Further, the testosterone levels result is given as “no effect” in data set [2] (men); “High levels” in data set [2] (men with liver cirrhosis); “measurably increase” in data set [2] (prepubertal boys and women). For the same molecule, the circulating testosterone levels entry in data set [2] (oral, large doses such as 200 mg) is “significant increases”. Besides, the oral bioavailability in data set [2] (young women, single 25 mg dose) is reported as 3.6±2.5%. Also, the half-life result in data set [3] is “under 1 hour”.
